Test results published in ChEMBL document CHEMBL2331275, “Fluorescence study for selecting specific ligands toward HER2 receptor: an example of receptor fragment approach” (Eur J Med Chem, 2013).
Active and inactive are the calls of the source. The rule behind the calls is not given here.

Target: Receptor tyrosine-protein kinase erbB-2 (Homo sapiens, UniProt P04626)
Assay: Binding affinity to synthetic peptide mimicking HER2 subdomain 4 (unknown origin) by fluorescence spectroscopic analysis

Receptor tyrosine-protein kinase erbB-2, sequence (P04626 whole entry): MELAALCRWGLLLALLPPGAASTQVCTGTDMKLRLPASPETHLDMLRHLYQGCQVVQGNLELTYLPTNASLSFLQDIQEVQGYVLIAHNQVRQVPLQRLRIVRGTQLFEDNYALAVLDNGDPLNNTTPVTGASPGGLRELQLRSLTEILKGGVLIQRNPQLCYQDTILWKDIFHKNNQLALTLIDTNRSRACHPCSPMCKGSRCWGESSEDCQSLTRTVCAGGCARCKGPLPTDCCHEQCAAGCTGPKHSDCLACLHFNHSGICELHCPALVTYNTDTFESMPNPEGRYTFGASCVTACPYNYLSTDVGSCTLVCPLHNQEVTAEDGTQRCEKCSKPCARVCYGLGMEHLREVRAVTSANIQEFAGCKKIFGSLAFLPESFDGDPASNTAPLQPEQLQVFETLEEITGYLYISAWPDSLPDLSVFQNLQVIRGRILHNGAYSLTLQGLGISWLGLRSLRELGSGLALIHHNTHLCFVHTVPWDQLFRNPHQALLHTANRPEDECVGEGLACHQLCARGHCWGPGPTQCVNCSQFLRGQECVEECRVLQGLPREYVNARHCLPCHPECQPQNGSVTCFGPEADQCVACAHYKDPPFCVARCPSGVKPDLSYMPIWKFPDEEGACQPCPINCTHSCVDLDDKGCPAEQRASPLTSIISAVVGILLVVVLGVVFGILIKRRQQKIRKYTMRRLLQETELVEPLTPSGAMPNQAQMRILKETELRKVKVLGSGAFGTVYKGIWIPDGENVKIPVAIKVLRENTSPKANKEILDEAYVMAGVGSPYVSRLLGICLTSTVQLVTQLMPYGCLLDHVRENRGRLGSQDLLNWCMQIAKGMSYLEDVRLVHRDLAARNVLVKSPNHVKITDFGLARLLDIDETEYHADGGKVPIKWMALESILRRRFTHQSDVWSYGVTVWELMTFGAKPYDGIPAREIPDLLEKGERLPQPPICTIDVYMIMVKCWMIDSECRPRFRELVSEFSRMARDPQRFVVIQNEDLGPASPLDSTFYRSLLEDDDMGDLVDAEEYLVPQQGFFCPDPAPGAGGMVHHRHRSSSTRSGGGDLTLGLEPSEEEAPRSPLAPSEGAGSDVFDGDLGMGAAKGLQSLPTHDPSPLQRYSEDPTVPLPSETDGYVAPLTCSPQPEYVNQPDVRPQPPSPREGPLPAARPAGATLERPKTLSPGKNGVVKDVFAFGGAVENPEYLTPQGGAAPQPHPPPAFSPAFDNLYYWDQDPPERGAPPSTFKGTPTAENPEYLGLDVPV

Row | Kd [nM] | Activity | Substance
1 | 446 |  | Ac-ARIYPTNGYTRY-NH2
2 | 174 |  | Ac-CQQHYTTPPTFG-NH2
3 |  | inactive | Ac-CSRWGGDGFYAMDYWG-NH2
4 | 10.2 |  | Ac-QDVNTAVAW-NH2
